{"source": "BindingDB's records for PubMed 21964340", "key": {"[1]": {"target": "Sodium-dependent noradrenaline transporter (Homo sapiens) (UniProt P23975)", "sequence (P23975 whole entry, looked up)": "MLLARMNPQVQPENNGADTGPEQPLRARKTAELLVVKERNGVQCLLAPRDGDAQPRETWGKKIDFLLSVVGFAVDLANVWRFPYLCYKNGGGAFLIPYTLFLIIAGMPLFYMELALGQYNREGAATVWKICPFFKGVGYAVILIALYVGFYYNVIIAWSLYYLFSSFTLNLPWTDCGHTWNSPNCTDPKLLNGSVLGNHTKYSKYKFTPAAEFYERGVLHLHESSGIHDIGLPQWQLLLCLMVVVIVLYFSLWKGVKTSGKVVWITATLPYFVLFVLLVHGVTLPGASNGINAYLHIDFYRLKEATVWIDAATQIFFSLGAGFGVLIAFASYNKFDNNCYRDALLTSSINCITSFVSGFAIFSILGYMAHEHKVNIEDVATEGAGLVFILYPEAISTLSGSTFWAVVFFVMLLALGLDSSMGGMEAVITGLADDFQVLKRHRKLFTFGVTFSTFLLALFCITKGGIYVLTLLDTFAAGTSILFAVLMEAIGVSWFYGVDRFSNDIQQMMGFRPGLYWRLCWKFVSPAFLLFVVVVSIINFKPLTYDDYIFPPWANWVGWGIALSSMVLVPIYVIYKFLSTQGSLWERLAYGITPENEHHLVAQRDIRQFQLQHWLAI", "experiment": "Inhibition of human NET by scintillation proximity assay"}, "[2]": {"experiment": "Inhibition of OGT (unknown origin) incubated for 1 hr by colloidal coomassie staining based LC-MS/MS analysis"}, "[3]": {"experiment": "Inhibition of TKT (unknown origin) incubated for 1 hr by colloidal coomassie staining based LC-MS/MS analysis"}, "[4]": {"experiment": "Inhibition of RFC1 (unknown origin) incubated for 1 hr by colloidal coomassie staining based LC-MS/MS analysis"}, "[5]": {"experiment": "Inhibition of PUS1 (unknown origin) incubated for 1 hr by colloidal coomassie staining based LC-MS/MS analysis"}, "[6]": {"experiment": "Inhibition of RPN2 (unknown origin) incubated for 1 hr by colloidal coomassie staining based LC-MS/MS analysis"}, "[7]": {"experiment": "Inhibition of ARL1 (unknown origin) incubated for 1 hr by colloidal coomassie staining based LC-MS/MS analysis"}, "[8]": {"experiment": "Inhibition of UBA1 (unknown origin) incubated for 1 hr by colloidal coomassie staining based LC-MS/MS analysis"}, "[9]": {"experiment": "Inhibition of KPNA1 (unknown origin) incubated for 1 hr by colloidal coomassie staining based LC-MS/MS analysis"}, "[10]": {"experiment": "Inhibition of CCNL2 (unknown origin) incubated for 1 hr by colloidal coomassie staining based LC-MS/MS analysis"}, "[11]": {"experiment": "Inhibition of PTBP1 (unknown origin) incubated for 1 hr by colloidal coomassie staining based LC-MS/MS analysis"}, "[12]": {"experiment": "Inhibition of INTS8 (unknown origin) incubated for 1 hr by colloidal coomassie staining based LC-MS/MS analysis"}, "[13]": {"experiment": "Inhibition of LAS1L (unknown origin) incubated for 1 hr by colloidal coomassie staining based LC-MS/MS analysis"}, "[14]": {"experiment": "Inhibition of ABCF1 (unknown origin) incubated for 1 hr by colloidal coomassie staining based LC-MS/MS analysis"}, "[15]": {"experiment": "Inhibition of NACC1 (unknown origin) incubated for 1 hr by colloidal coomassie staining based LC-MS/MS analysis"}, "[16]": {"experiment": "Inhibition of WDR33 (unknown origin) incubated for 1 hr by colloidal coomassie staining based LC-MS/MS analysis"}, "[17]": {"experiment": "Inhibition of PIAS4 (unknown origin) incubated for 1 hr by colloidal coomassie staining based LC-MS/MS analysis"}, "[18]": {"experiment": "Inhibition of LENG8 (unknown origin) incubated for 1 hr by colloidal coomassie staining based LC-MS/MS analysis"}, "[19]": {"experiment": "Inhibition of PRDX6 (unknown origin) incubated for 1 hr by colloidal coomassie staining based LC-MS/MS analysis"}, "[20]": {"experiment": "Inhibition of POLR2B (unknown origin) incubated for 1 hr by colloidal coomassie staining based LC-MS/MS analysis"}, "[21]": {"experiment": "Inhibition of CORO1A (unknown origin) incubated for 1 hr by colloidal coomassie staining based LC-MS/MS analysis"}, "[22]": {"experiment": "Inhibition of PSMD11 (unknown origin) incubated for 1 hr by colloidal coomassie staining based LC-MS/MS analysis"}, "[23]": {"experiment": "Inhibition of RPS15A (unknown origin) incubated for 1 hr by colloidal coomassie staining based LC-MS/MS analysis"}, "[24]": {"experiment": "Inhibition of SFRS10 (unknown origin) incubated for 1 hr by colloidal coomassie staining based LC-MS/MS analysis"}, "[25]": {"experiment": "Inhibition of SMCHD1 (unknown origin) incubated for 1 hr by colloidal coomassie staining based LC-MS/MS analysis"}, "[26]": {"experiment": "Inhibition of SF3B14 (unknown origin) incubated for 1 hr by colloidal coomassie staining based LC-MS/MS analysis"}, "[27]": {"experiment": "Inhibition of CSNK2A1 (unknown origin) incubated for 1 hr by colloidal coomassie staining based LC-MS/MS analysis"}, "[28]": {"experiment": "Inhibition of HIST1H2BA (unknown origin) incubated for 1 hr by colloidal coomassie staining based LC-MS/MS analysis"}, "[29]": {"experiment": "Binding affinity against ELL (unknown origin) assessed as apparent dissociation constant incubated for 1 hr by colloidal coomassie staining based LC-MS/MS analysis"}, "[30]": {"experiment": "Binding affinity against OGT (unknown origin) assessed as apparent dissociation constant incubated for 1 hr by colloidal coomassie staining based LC-MS/MS analysis"}, "[31]": {"experiment": "Binding affinity against DSG1 (unknown origin) assessed as apparent dissociation constant incubated for 1 hr by colloidal coomassie staining based LC-MS/MS analysis"}, "[32]": {"experiment": "Binding affinity against RFC1 (unknown origin) assessed as apparent dissociation constant incubated for 1 hr by colloidal coomassie staining based LC-MS/MS analysis"}, "[33]": {"experiment": "Binding affinity against BRD9 (unknown origin) assessed as apparent dissociation constant incubated for 1 hr by colloidal coomassie staining based LC-MS/MS analysis"}, "[34]": {"experiment": "Binding affinity against CCT2 (unknown origin) assessed as apparent dissociation constant incubated for 1 hr by colloidal coomassie staining based LC-MS/MS analysis"}, "[35]": {"experiment": "Binding affinity against NOLC1 (unknown origin) assessed as apparent dissociation constant incubated for 1 hr by colloidal coomassie staining based LC-MS/MS analysis"}, "[36]": {"experiment": "Binding affinity against PSME3 (unknown origin) assessed as apparent dissociation constant incubated for 1 hr by colloidal coomassie staining based LC-MS/MS analysis"}, "[37]": {"experiment": "Binding affinity against GTF2I (unknown origin) assessed as apparent dissociation constant incubated for 1 hr by colloidal coomassie staining based LC-MS/MS analysis"}, "[38]": {"experiment": "Binding affinity against PWWP2B (unknown origin) assessed as apparent dissociation constant incubated for 1 hr by colloidal coomassie staining based LC-MS/MS analysis"}, "[39]": {"experiment": "Binding affinity against TUBA4A (unknown origin) assessed as apparent dissociation constant incubated for 1 hr by colloidal coomassie staining based LC-MS/MS analysis"}, "[40]": {"experiment": "Binding affinity against SETD1B (unknown origin) assessed as apparent dissociation constant incubated for 1 hr by colloidal coomassie staining based LC-MS/MS analysis"}}, "data": [{"smiles": "CCNC(=O)C[C@@H]1N=C(c2ccc(Cl)cc2)c2cc(OC)ccc2-n2c(C)nnc21", "values": [{"measurement": "IC50", "setting": "[1]", "result": "> 100000", "unit": "nM"}, {"measurement": "IC50", "setting": "[2]", "result": 480, "unit": "nM"}, {"measurement": "IC50", "setting": "[3]", "result": 5270, "unit": "nM"}, {"measurement": "IC50", "setting": "[4]", "result": 50, "unit": "nM"}, {"measurement": "IC50", "setting": "[5]", "result": "> 10000", "unit": "nM"}, {"measurement": "IC50", "setting": "[6]", "result": "> 10000", "unit": "nM"}, {"measurement": "IC50", "setting": "[7]", "result": "> 10000", "unit": "nM"}, {"measurement": "IC50", "setting": "[8]", "result": "> 10000", "unit": "nM"}, {"measurement": "IC50", "setting": "[9]", "result": 30, "unit": "nM"}, {"measurement": "IC50", "setting": "[10]", "result": 50, "unit": "nM"}, {"measurement": "IC50", "setting": "[11]", "result": "> 10000", "unit": "nM"}, {"measurement": "IC50", "setting": "[12]", "result": "> 10000", "unit": "nM"}, {"measurement": "IC50", "setting": "[13]", "result": 270, "unit": "nM"}, {"measurement": "IC50", "setting": "[14]", "result": "> 10000", "unit": "nM"}, {"measurement": "IC50", "setting": "[15]", "result": "> 10000", "unit": "nM"}, {"measurement": "IC50", "setting": "[16]", "result": 1090, "unit": "nM"}, {"measurement": "IC50", "setting": "[17]", "result": "> 10000", "unit": "nM"}, {"measurement": "IC50", "setting": "[18]", "result": 100, "unit": "nM"}, {"measurement": "IC50", "setting": "[19]", "result": "> 10000", "unit": "nM"}, {"measurement": "IC50", "setting": "[20]", "result": 150, "unit": "nM"}, {"measurement": "IC50", "setting": "[21]", "result": "> 10000", "unit": "nM"}, {"measurement": "IC50", "setting": "[22]", "result": 60, "unit": "nM"}, {"measurement": "IC50", "setting": "[23]", "result": 1390, "unit": "nM"}, {"measurement": "IC50", "setting": "[24]", "result": 230, "unit": "nM"}, {"measurement": "IC50", "setting": "[25]", "result": 1070, "unit": "nM"}, {"measurement": "IC50", "setting": "[26]", "result": "> 10000", "unit": "nM"}, {"measurement": "IC50", "setting": "[27]", "result": 120, "unit": "nM"}, {"measurement": "IC50", "setting": "[28]", "result": "> 10000", "unit": "nM"}, {"measurement": "Kd", "setting": "[29]", "result": 66, "unit": "nM"}, {"measurement": "Kd", "setting": "[30]", "result": 223, "unit": "nM"}, {"measurement": "Kd", "setting": "[31]", "result": 4620, "unit": "nM"}, {"measurement": "Kd", "setting": "[32]", "result": 54, "unit": "nM"}, {"measurement": "Kd", "setting": "[33]", "result": 20, "unit": "nM"}, {"measurement": "Kd", "setting": "[34]", "result": 1620, "unit": "nM"}, {"measurement": "Kd", "setting": "[35]", "result": 63, "unit": "nM"}, {"measurement": "Kd", "setting": "[36]", "result": 84, "unit": "nM"}, {"measurement": "Kd", "setting": "[37]", "result": 7550, "unit": "nM"}, {"measurement": "Kd", "setting": "[38]", "result": 25, "unit": "nM"}, {"measurement": "Kd", "setting": "[39]", "result": 102, "unit": "nM"}, {"measurement": "Kd", "setting": "[40]", "result": 45, "unit": "nM"}]}]}
